Experimental data: patent publication US11330999B2 (MEMORIAL SLOAN KETTERING CANCER CENTER, priority 2017, dated 2022)

Legend:
[1] = Thermal equilibrium T1 at high field (14.1T), inversion recovery; format: physicochemical
Procedure: (§1) [5-^13C]-glutamine (Cambridge Isotope Laboratories), [^13C]-urea (Sigma Aldrich), [^13C, ^15N2]-urea (Sigma Aldrich), [6-^13C]-arginine (Cambridge Isotope Laboratories), [5-^13C, ^15N]-glutamine (24) (24, as described in Example 7) and [6-^13C, ^15N3]-arginine (21, as described in Example 2) were evaluated to determine thermal equilibrium T1 and T2. An aliquot of each compound was dissolved in 95:5 D2O:H2O containing 100 mM Tris pD 7.4 and 100% H2O containing 100 mM Tris pH 7.4. [^13C]-urea and [^13C, ^15N2]-urea were dissolved to a final concentration of 100 mM.
(§2) ^13C NMR spectra for each compound dissolved in 95:5 D2O:H2O and 100% H2O was obtained with a 14.1T ^13C NMR (Bruker, USA). For inversion recovery experiments, 13 to 15 different delay times between the 180° and 90° pulses, spanning 3T1, were sampled. Each spectrum was an average of 3 to 4 scans, and a 5T1 to 6T1 pre-scan wait time was used to allow re-polarization of carbon nuclear spins between scans. T2 values were measured using a Carr-Purcell-Meiboom-Gill (CPMG) sequence for each compound dissolved in 95:5 D2O:H2O and 100% H2O. A 10 ms (or 5 ms ^13C-urea samples) wait-time between 180° pulses was used, and signal was acquired at total echo times spanning 3T2. For both T1- and T2-relaxation curve fitting, spectra were imported into Mnova (Mestrelabs, USA) and the area under the curve (AUC) of the ^13C resonance of interest was integrated. AUC values were exported to Prism 7 (GraphPad Software, USA), plotted against time on the x-axis, and data points were fit to the Bloch equations for T1 and T2.
(§3) When each compound was dissolved in D2O, the exchangeable protons on the nitrogen atoms rapidly exchange with deuterium in the solvent. As described in Table 1, at high field, each compound having protons exchanged with deuterium extended the T1 of ^13C relaxation times directly bonded to —NH or —NH2 residues, respectively. This effect is further illustrated for [6-^13C]-/[6-^13C, ^15N3]-arginine in FIG. 7.

[2] = Thermal equilibrium T2 at high field (14.1T), CPMG; format: physicochemical
Procedure: as §1, §2, §3

[3] = Hyperpolarized T1 at 1T after dissolution in buffered H2O or D2O; format: physicochemical
Procedure: Each compound was prepared with a different formulation, as follows: [5-^13C]- and [5-^13C, ^15N]-glutamine was mixed with 1.1 equivalent HCl and dissolved to a final concentration of 1.5 Min H2O:DMSO (65:35). [^13C]— and [^13C, ^15N2]-urea was dissolved to a final concentration of 6M in glycerol. [6-^13C]- and [6-^13C, ^15N3]-arginine was mixed with 1 equivalent HCl and dissolved to a final concentration of 3.2M in H2O. Each of these preparations also contained OX063 radical (General Electric, UK) dissolved to a final concentration of 15 mM. [^13C]—/[^13C, ^15N2]-urea and [6-^13C]-/[6-^13C, ^15N3]-arginine samples were polarized in a 3.35T SpinLab Polarizer (General Electric, UK) for 1.5 hours (0.83K, 93.98 GHz), while: [5-^13C]-/[^13C, ^15N]-glutamine samples were polarized in a 5T SpinLab Polarizer for 2 hours (0.83K, 93.98 GHz). Following polarization, the HP substrate was ejected from the polarizer via rapid dissolution, during which a superheated solution of 100 mM Tris 1 mM EDTA in pH 7.4 H2O or pD 7.4 D2O is run through the sample vial to dissolve the polarized substrate and eject it into a pre-chilled glass vial (−20° C.).

[4] = In vivo 13C EPI imaging of hyperpolarized urea in mouse; settings: healthy female Balb/c mouse, monitored for 30 minutes
Procedure: Hyperpolarized [^13C, ^15N2]-urea was studied under clinical imaging conditions. A healthy female Balb/c mouse (12 weeks old) was injected with identical volumes of hyperpolarized [^13C, ^15N]-urea dissolved in either buffered D2O or H2O (FIG. 9A). Both samples were polarized for similar amounts of time and were dissolved to similar final concentrations. Immediately following the end of the injection, an axial 2D ^13C echo-planar imaging (EPI) sequence was initiated with a 3 s repetition time, 16×16 resolution with 2.25 mm×2.25 mm×10 mm voxels.

[5] = 95:5 D2O:H2O, 100 mM Tris pD 7.4

[15NH2][13C]([15NH2])=O [Urea ^13C, ^15N2, [^13C, ^15N2]-urea]
T1 Value (s) D2O [1, 5]: 57.34 ± 2.04 s | T1 Value (s) H2O ([1]; 100% H2O, 100 mM Tris pH 7.4): 31.97 ± 1.38 s | T2 Value (s) D2O [2, 5]: 34.61 ± 0.64 s | T2 Value (s) H2O ([2]; 100% H2O, 100 mM Tris pH 7.4): 20.12 ± 0.17 s | Hyperpolarized T1 Value (s) D2O ([3]; dissolution in 100 mM Tris 1 mM EDTA pD 7.4 D2O): 115.9 ± 8.5 s | Hyperpolarized T1 Value (s) H2O ([3]; dissolution in 100 mM Tris 1 mM EDTA pH 7.4 H2O): 53.3 ± 2.6 s | morbidity after the two injections [4]: no obvious morbidity
